In ChEMBL document CHEMBL1201861, “Genomics of Drug Sensitity in Cancer screening data, Wellcome Trust Sanger Institute”:
Values belong to the compound of their own block, whether it stands above or below them.

Assays:
Experiment in all cases: cells
SW 962 = format: functional, cell-based, Homo sapiens; details: Homo sapiens, SW 962;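 further: growth inhibition of human SW962 cells, read out by a cell viability assay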
Description: SANGER: Inhibition of human SW962 cell growth in a cell viability assay.

SJSA-1 = format: functional, cell-based, Homo sapiens; details: Homo sapiens, SJSA-1;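 further: growth inhibition of human SJSA-1 cells, read out through a cell viability measurement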
Description: SANGER: Inhibition of human SJSA-1 cell growth in a cell viability assay.

NB12 = format: functional, cell-based, Homo sapiens; details: Homo sapiens, NB12;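 further: growth inhibition of human NB12 cells, read out by a cell viability assay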
Description: SANGER: Inhibition of human NB12 cell growth in a cell viability assay.

NCI-H2126 = format: functional, cell-based, Homo sapiens; details: Homo sapiens, NCI-H2126;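 further: growth inhibition of the cancer cell line, determined with a cell viability readout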
Description: SANGER: Inhibition of human NCI-H2126 cell growth in a cell viability assay.

ACN = format: functional, cell-based, Homo sapiens; details: Homo sapiens, ACN;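 further: growth inhibition of the human ACN cell line, read out via cell viability testing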
Description: SANGER: Inhibition of human ACN cell growth in a cell viability assay.

DMS-114 = format: functional, cell-based, Homo sapiens; details: Homo sapiens, DMS-114
ES4 = format: functional, cell-based, Homo sapiens; details: Homo sapiens, ES4;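 further: growth inhibition of human ES4 cells, read out by a cell viability assay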
Description: SANGER: Inhibition of human ES4 cell growth in a cell viability assay.

MFM-223 = format: functional, cell-based, Homo sapiens; details: Homo sapiens, MFM-223
Description: SANGER: Inhibition of human MFM-223 cell growth in a cell viability assay.

LOX IMVI = format: functional, cell-based, Homo sapiens; details: Homo sapiens, LOX IMVI
Description: SANGER: Inhibition of human LOXIMVI cell growth in a cell viability assay.

NCI-H1838 = format: functional, cell-based, Homo sapiens; details: Homo sapiens, NCI-H1838;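 further: growth inhibition of NCI-H1838 cells, determined with a cell viability readout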
Description: SANGER: Inhibition of human NCI-H1838 cell growth in a cell viability assay.

UACC-257 = format: functional, cell-based, Homo sapiens; details: Homo sapiens, UACC-257
Description: SANGER: Inhibition of human UACC-257 cell growth in a cell viability assay.

LB831-BLC = format: functional, cell-based, Homo sapiens; details: Homo sapiens, LB831-BLC;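 further: growth inhibition of LB831-BLC cells, read out with a cell viability assay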
Description: SANGER: Inhibition of human LB831-BLC cell growth in a cell viability assay.

HCC1187 = format: functional, cell-based, Homo sapiens; details: Homo sapiens, HCC1187;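 further: growth inhibition of HCC1187 cells, read out with a cell viability assay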
Description: SANGER: Inhibition of human HCC1187 cell growth in a cell viability assay.

COLO-824 = format: functional, cell-based, Homo sapiens; details: Homo sapiens, COLO-824
Description: SANGER: Inhibition of human COLO-824 cell growth in a cell viability assay.

AM-38 = format: functional, cell-based, Homo sapiens; details: Homo sapiens, AM-38;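 further: growth inhibition of AM-38 cells of human origin, read out by a cell viability assay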
Description: SANGER: Inhibition of human AM-38 cell growth in a cell viability assay.

MZ2-MEL = format: functional, cell-based, Homo sapiens; details: Homo sapiens, MZ2-MEL;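 further: growth inhibition of MZ2-MEL cells read out with a cell viability assay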
Description: SANGER: Inhibition of human MZ2-MEL cell growth in a cell viability assay.

HCC 2998 = format: functional, cell-based, Homo sapiens; details: Homo sapiens, HCC 2998;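 further: growth inhibition of human HCC2998 cells, measured with a cell viability read-out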
Description: SANGER: Inhibition of human HCC2998 cell growth in a cell viability assay.

TE-9 = format: functional, cell-based, Homo sapiens; details: Homo sapiens, TE-9;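 further: cell growth inhibition, measured with a cell viability readout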
Description: SANGER: Inhibition of human TE-9 cell growth in a cell viability assay.

SK-MEL-2 = format: functional, cell-based, Homo sapiens; details: Homo sapiens, SK-MEL-2;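 further: growth inhibition of human SK-MEL-2 cells measured with a cell viability assay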
Description: SANGER: Inhibition of human SK-MEL-2 cell growth in a cell viability assay.

BB49-HNC = format: functional, cell-based, Homo sapiens; details: Homo sapiens, BB49-HNC;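 further: cell viability assay read-out, reported as inhibition of BB49-HNC cell growth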
Description: SANGER: Inhibition of human BB49-HNC cell growth in a cell viability assay.

SH-4 = format: functional, cell-based, Homo sapiens; details: Homo sapiens, SH-4;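 further: growth inhibition of SH-4 cells, read out with a cell viability assay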
Description: SANGER: Inhibition of human SH-4 cell growth in a cell viability assay.

SCH = format: functional, cell-based, Homo sapiens; details: Homo sapiens, SCH;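 further: growth inhibition of human SCH cells, read out in a cell viability assay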
Description: SANGER: Inhibition of human SCH cell growth in a cell viability assay.

LS-411N = format: functional, cell-based, Homo sapiens; details: Homo sapiens, LS-411N
DJM-1 = format: functional, cell-based, Homo sapiens; details: Homo sapiens, DJM-1;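 further: growth inhibition of human DJM-1 cells, read out by a cell viability assay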
Description: SANGER: Inhibition of human DJM-1 cell growth in a cell viability assay.

SHP77 = format: functional, cell-based, Homo sapiens, SHP-77; details: Homo sapiens, SHP77;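 further: growth inhibition of human SHP-77 cells measured by a cell viability assay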
Description: SANGER: Inhibition of human SHP-77 cell growth in a cell viability assay.

ONS-76 = format: functional, cell-based, Homo sapiens; details: Homo sapiens, ONS-76;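 further: growth inhibition of human ONS-76 cells, read out with a cell viability assay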
Description: SANGER: Inhibition of human ONS-76 cell growth in a cell viability assay.

NCI-N87 = format: functional, cell-based, Homo sapiens; details: Homo sapiens, NCI-N87;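 further: growth inhibition of human NCI-N87 cells, read out with a cell viability assay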
Description: SANGER: Inhibition of human NCI-N87 cell growth in a cell viability assay.

A101D = format: functional, cell-based, Homo sapiens; details: Homo sapiens, A101D;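 further: growth inhibition of the cell line, measured with a viability assay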
Description: SANGER: Inhibition of human A101D cell growth in a cell viability assay.

SK-UT-1 = format: functional, cell-based, Homo sapiens; details: Homo sapiens, SK-UT-1;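 further: growth inhibition of SK-UT-1 cells, measured by a cell viability assay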
Description: SANGER: Inhibition of human SK-UT-1 cell growth in a cell viability assay.

KLE = format: functional, cell-based, Homo sapiens; details: Homo sapiens, KLE;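 further: growth inhibition of human KLE cells, read out with a cell viability assay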
Description: SANGER: Inhibition of human KLE cell growth in a cell viability assay.

NCI-H1299 = format: functional, cell-based, Homo sapiens; details: Homo sapiens, NCI-H1299;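 further: growth inhibition of human NCI-H1299 cells, read out by a cell viability assay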
Description: SANGER: Inhibition of human NCI-H1299 cell growth in a cell viability assay.

SNU1 = format: functional, cell-based, Homo sapiens; details: Homo sapiens, SNU1;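 further: growth inhibition of human NCI-SNU-1 cells, measured with a cell viability assay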
Description: SANGER: Inhibition of human NCI-SNU-1 cell growth in a cell viability assay.

KM-H2 = format: functional, cell-based, Homo sapiens; details: Homo sapiens, KM-H2;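 further: growth inhibition of KM-H2 cells, read out by a cell viability assay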
Description: SANGER: Inhibition of human KM-H2 cell growth in a cell viability assay.

HC-1 = format: functional, cell-based, Homo sapiens; details: Homo sapiens, HC-1;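 further: growth inhibition of HC-1 cells measured by a cell viability assay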
Description: SANGER: Inhibition of human HC-1 cell growth in a cell viability assay.

GR-ST = format: functional, cell-based, Homo sapiens; details: Homo sapiens, GR-ST
Description: SANGER: Inhibition of human GR-ST cell growth in a cell viability assay.

HAL-01 = format: functional, cell-based, Homo sapiens; details: Homo sapiens, HAL-01;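 further: growth inhibition of human HAL-01 cells, read out with a cell viability assay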
Description: SANGER: Inhibition of human HAL-01 cell growth in a cell viability assay.

COR-L88 = format: functional, cell-based, Homo sapiens; details: Homo sapiens, COR-L88;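 further: growth inhibition of COR-L88 cells, read out with a cell viability assay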
Description: SANGER: Inhibition of human COR-L88 cell growth in a cell viability assay.

Mo = format: functional, cell-based, Homo sapiens; details: Homo sapiens, Mo
Description: SANGER: Inhibition of human Mo-T cell growth in a cell viability assay.

SBC-1 = format: functional, cell-based, Homo sapiens; details: Homo sapiens, SBC-1;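 further: cell viability assay measuring growth inhibition of the SBC-1 cell line, IC50 being the concentration that halves growth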
Description: SANGER: Inhibition of human SBC-1 cell growth in a cell viability assay.

MFH-ino = format: functional, cell-based, Homo sapiens; details: Homo sapiens, MFH-ino;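 further: growth inhibition of human MFH-ino cells, read out by a cell viability assay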
Description: SANGER: Inhibition of human MFH-ino cell growth in a cell viability assay.

HT = format: functional, cell-based, Homo sapiens; details: Homo sapiens, HT
Description: SANGER: Inhibition of human HT cell growth in a cell viability assay.

L-428 = format: functional, cell-based, Homo sapiens; details: Homo sapiens, L-428
Description: SANGER: Inhibition of human L-428 cell growth in a cell viability assay.

A4-Fuk = format: functional, cell-based, Homo sapiens; details: Homo sapiens, A4-Fuk;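 further: growth inhibition of A4-Fuk cells, read out by a cell viability assay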
Description: SANGER: Inhibition of human A4-Fuk cell growth in a cell viability assay.

NCI-H1770 = format: functional, cell-based, Homo sapiens; details: Homo sapiens, NCI-H1770;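 further: growth inhibition of NCI-H1770 cells determined with a viability readout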
Description: SANGER: Inhibition of human NCI-H1770 cell growth in a cell viability assay.

J-RT3-T3-5 = format: functional, cell-based, Homo sapiens; details: Homo sapiens, J-RT3-T3-5;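 further: cell viability assay measuring growth inhibition of human J-RT3-T3-5 cells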
Description: SANGER: Inhibition of human J-RT3-T3-5 cell growth in a cell viability assay.

HCC2218 = format: functional, cell-based, Homo sapiens; details: Homo sapiens, HCC2218;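 further: cell viability assay read-out, with IC50 given as the concentration that inhibits growth of the cell line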
Description: SANGER: Inhibition of human HCC2218 cell growth in a cell viability assay.

RPMI-8226 = format: functional, cell-based, Homo sapiens; details: Homo sapiens, RPMI-8226
Description: SANGER: Inhibition of human RPMI-8226 cell growth in a cell viability assay.

A3-KAW = format: functional, cell-based, Homo sapiens; details: Homo sapiens, A3-KAW;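 further: growth inhibition of human A3-KAW cells, read out with a cell viability assay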
Description: SANGER: Inhibition of human A3-KAW cell growth in a cell viability assay.

IC50 (SW 962): 0.378 µM | IC50 (SJSA-1): 0.327 µM | IC50 (NB12): 0.136 µM | IC50 (NCI-H2126): 0.782 µM | IC50 (ACN): 0.696 µM | IC50 (DMS-114): 0.0907 µM | IC50 (ES4): 0.516 µM | IC50 (MFM-223): 0.847 µM | IC50 (LOX IMVI): 0.271 µM | IC50 (NCI-H1838): 2.16 µM | IC50 (UACC-257): 0.552 µM | IC50 (LB831-BLC): 0.745 µM | IC50 (HCC1187): 0.425 µM | IC50 (COLO-824): 0.691 µM | IC50 (AM-38): 0.841 µM | IC50 (MZ2-MEL): 0.212 µM | IC50 (HCC 2998): 5.89 µM | IC50 (TE-9): 0.225 µM | IC50 (SK-MEL-2): 0.23 µM | IC50 (BB49-HNC): 2.01 µM | IC50 (SH-4): 0.227 µM | IC50 (SCH): 0.367 µM | IC50 (LS-411N): 1.24 µM | IC50 (DJM-1): 0.52 µM | IC50 (SHP77): 0.451 µM | IC50 (ONS-76): 0.325 µM | IC50 (NCI-N87): 2.2 µM | IC50 (A101D): 0.0875 µM | IC50 (SK-UT-1): 0.0287 µM | IC50 (KLE): 1.94 µM | IC50 (NCI-H1299): 0.28 µM
Structure (SMILES): CC(C)c1ccccc1Cc1cc(C(=O)Nc2ccc(S(=O)(=O)c3ccccc3C(C)(C)C)cc2)c(O)c(O)c1O

Structure (SMILES): Nc1cccc2c1CN(C1CCC(=O)NC1=O)C2=O (centres undefined) [LENALIDOMIDE]
IC50 (SNU1): > 5 µM | IC50 (KM-H2): > 5 µM | IC50 (HC-1): > 5 µM | IC50 (SW 962): > 5 µM | IC50 (SJSA-1): > 5 µM | IC50 (NB12): > 5 µM | IC50 (GR-ST): > 5 µM | IC50 (NCI-H2126): > 5 µM | IC50 (ACN): > 5 µM | IC50 (DMS-114): > 5 µM | IC50 (ES4): > 5 µM | IC50 (MFM-223): > 5 µM | IC50 (HAL-01): > 5 µM | IC50 (COR-L88): > 5 µM | IC50 (LOX IMVI): > 5 µM | IC50 (NCI-H1838): > 5 µM | IC50 (UACC-257): > 5 µM | IC50 (LB831-BLC): > 5 µM | IC50 (Mo): > 5 µM | IC50 (SBC-1): > 5 µM | IC50 (HCC1187): > 5 µM | IC50 (COLO-824): > 5 µM | IC50 (AM-38): > 5 µM | IC50 (MFH-ino): > 5 µM | IC50 (MZ2-MEL): > 5 µM | IC50 (HCC 2998): > 5 µM | IC50 (TE-9): > 5 µM | IC50 (HT): > 5 µM | IC50 (L-428): > 5 µM | IC50 (SK-MEL-2): > 5 µM | IC50 (BB49-HNC): > 5 µM | IC50 (A4-Fuk): > 5 µM | IC50 (SH-4): > 5 µM | IC50 (SCH): > 5 µM | IC50 (LS-411N): > 5 µM | IC50 (DJM-1): > 5 µM | IC50 (SHP77): > 5 µM | IC50 (NCI-H1770): > 5 µM | IC50 (J-RT3-T3-5): > 5 µM | IC50 (ONS-76): > 5 µM | IC50 (HCC2218): > 5 µM | IC50 (NCI-N87): > 5 µM | IC50 (A101D): > 5 µM | IC50 (SK-UT-1): > 5 µM | IC50 (KLE): > 5 µM | IC50 (NCI-H1299): > 5 µM | IC50 (RPMI-8226): > 5 µM | IC50 (A3-KAW): > 5 µM
